This note sets out measurements from ChEMBL document CHEMBL1138413, “Development of SPECT imaging agents for the norepinephrine transporters: [123I]INER” (Bioorg Med Chem Lett, 2007).

The structures appear in SMILES notation.

The target of data set [1] is Sodium-dependent dopamine transporter (Rattus norvegicus, UniProt P23977). Description: Displacement of [3H]GBR from DAT in rat brain membranes. It counts as cell membranes.
The target in data set [2] is Norepinephrine transporter (Rattus norvegicus, UniProt Q9WTR4). The data set is described as follows: Displacement of [3H]nisoxetine from NET in rat brain membranes. The format is cell membranes.
For data set [3], the target named is Sodium-dependent serotonin transporter (Rattus norvegicus, UniProt P31652). The data set is described as follows: Displacement of [3H]paroxetine from SERT in brain membranes. The format is cell membranes, Membrane.
Data set [4] in a line: Lipophilicity, log D at pH 7.4. The following applies: buffer. The format is physicochemical.
The next data set relates to Brain. The data set is described as follows: Drug uptake in olive baboon brain at 7.89 mCi after 10 mins. The following applies: papio anubis, in vivo. It counts as ADME, tissue-based.
For data set [5], the target named is Sodium-dependent serotonin transporter (Rattus norvegicus) (UniProt P31652). The data set is described as follows: Inhibition of SERT in rat brain membrane at 10 uM. The format is cell membranes.
Sequence of Sodium-dependent serotonin transporter (Rattus norvegicus) (P31652 whole entry): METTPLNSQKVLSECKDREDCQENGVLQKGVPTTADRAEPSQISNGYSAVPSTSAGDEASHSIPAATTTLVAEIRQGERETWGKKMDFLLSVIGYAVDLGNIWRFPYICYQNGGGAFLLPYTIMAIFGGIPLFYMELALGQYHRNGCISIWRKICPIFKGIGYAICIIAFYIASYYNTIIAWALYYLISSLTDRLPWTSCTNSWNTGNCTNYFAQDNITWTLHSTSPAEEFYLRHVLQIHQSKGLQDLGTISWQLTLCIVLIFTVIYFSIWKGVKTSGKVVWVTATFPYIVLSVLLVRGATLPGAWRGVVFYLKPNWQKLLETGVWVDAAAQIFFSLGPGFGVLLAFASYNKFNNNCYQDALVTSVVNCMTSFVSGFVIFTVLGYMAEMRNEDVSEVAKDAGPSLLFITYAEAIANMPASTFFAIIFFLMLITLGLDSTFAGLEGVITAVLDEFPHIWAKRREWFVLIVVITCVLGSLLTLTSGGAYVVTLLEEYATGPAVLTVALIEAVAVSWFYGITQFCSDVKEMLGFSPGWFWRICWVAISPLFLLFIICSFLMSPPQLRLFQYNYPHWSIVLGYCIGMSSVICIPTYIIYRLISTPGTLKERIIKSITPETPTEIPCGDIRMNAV

Sequence of Sodium-dependent dopamine transporter (P23977 whole entry): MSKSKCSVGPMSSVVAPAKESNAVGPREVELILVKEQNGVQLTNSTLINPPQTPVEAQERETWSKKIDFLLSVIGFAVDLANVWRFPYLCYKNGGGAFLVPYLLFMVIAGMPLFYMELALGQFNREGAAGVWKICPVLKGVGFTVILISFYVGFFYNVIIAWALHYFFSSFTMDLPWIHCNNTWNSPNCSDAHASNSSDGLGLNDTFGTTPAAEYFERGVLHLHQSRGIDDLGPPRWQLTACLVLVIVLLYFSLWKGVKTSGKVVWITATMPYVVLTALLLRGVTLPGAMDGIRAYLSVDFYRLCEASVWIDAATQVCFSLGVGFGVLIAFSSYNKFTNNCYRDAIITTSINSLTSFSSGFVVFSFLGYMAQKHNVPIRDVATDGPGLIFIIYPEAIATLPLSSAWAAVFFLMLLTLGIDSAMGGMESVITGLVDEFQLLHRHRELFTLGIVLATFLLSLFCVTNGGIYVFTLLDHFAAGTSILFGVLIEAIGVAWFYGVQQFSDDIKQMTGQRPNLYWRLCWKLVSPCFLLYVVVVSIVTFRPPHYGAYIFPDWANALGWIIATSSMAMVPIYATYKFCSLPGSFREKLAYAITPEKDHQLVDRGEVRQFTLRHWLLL
Sequence of Sodium-dependent serotonin transporter (P31652 whole entry): as the sequence (P31652 whole entry) above
Sequence of Norepinephrine transporter (Q9WTR4 whole entry): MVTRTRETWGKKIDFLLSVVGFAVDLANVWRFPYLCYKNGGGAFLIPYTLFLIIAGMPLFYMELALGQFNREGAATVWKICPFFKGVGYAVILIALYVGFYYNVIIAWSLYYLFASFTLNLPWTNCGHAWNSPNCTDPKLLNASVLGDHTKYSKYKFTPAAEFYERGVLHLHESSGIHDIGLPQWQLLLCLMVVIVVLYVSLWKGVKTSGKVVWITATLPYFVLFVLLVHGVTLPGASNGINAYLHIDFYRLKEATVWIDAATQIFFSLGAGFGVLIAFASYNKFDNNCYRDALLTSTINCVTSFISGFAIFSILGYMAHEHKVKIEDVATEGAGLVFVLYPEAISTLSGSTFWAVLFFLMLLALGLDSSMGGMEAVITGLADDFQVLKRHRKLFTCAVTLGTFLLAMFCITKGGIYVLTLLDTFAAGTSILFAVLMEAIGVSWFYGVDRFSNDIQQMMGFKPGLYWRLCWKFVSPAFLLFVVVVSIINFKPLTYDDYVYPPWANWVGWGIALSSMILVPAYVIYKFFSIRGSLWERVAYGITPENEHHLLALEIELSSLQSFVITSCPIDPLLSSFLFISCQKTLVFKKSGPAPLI

Regarding `Ic1ccccc1O[C@@H](c1ccccc1)[C@@H]1CNCCO1`, the Ki is 228 nM in data set [1], 0.84 nM in data set [2] and 40.4 nM in data set [3].

`[125I]c1ccccc1O[C@@H](c1ccccc1)[C@@H]1CNCCO1`: the logD in data set [4] was 2.6. Besides, the Drug uptake in the data set with Brain came out at 1 %ID.

On to `COc1ccccc1COC(c1cccc(I)c1)C1CNCCO1` (racemic), for which the values for the Ki in data set [1], in data set [2] and in data set [3] were 716 nM, 73.8 nM and 351 nM, respectively.

Consider `Cc1ccccc1OC(c1ccc(I)s1)C1CNCCO1` (racemic), for which the Ki was 186 nM in data set [1] and 71.9 nM in data set [2]. In data set [5], the inhibition was 31%.

In the case of `COc1ccccc1OC(c1ccc(I)s1)C1CNCCO1` (racemic), the values for the Ki in data set [1], in data set [2] and in data set [3] were 210 nM, 79.6 nM and 141 nM, respectively.

Take `O=[N+]([O-])c1ccccc1COC(c1cccc(I)c1)C1CNCCO1` (racemic): the Ki in data set [1] amounted to 14.2 nM; in data set [2], 70.4 nM; in data set [3], 252 nM.

Consider `COc1ccccc1OC(c1cccc(I)c1)C1CNCCO1` (racemic), for which the results for the Ki in data set [1] and in data set [2] were over 10000 nM and 15.4 nM, respectively. In addition, the inhibition in data set [5] was determined as 12%.

On to `CCOc1ccccc1OC(c1cccc(I)c1)C1CNCCO1` (racemic), for which the results for the Ki in data set [1] and in data set [2] were 3140 nM and 28.5 nM, respectively. In data set [5], the inhibition was determined as 44%.

Regarding `Ic1ccccc1OC(c1ccccc1)C1CNCCO1` (racemic), the Ki in data set [1] turned out to be 410 nM; in data set [2], 2.47 nM. In data set [5], this compound came in with an inhibition of 40%.

As for `FC(F)(F)c1ccccc1OC(c1cccc(I)c1)C1CNCCO1` (racemic), the Ki stood at 1870 nM in data set [1], 101 nM in data set [2] and 486 nM in data set [3].

Take `Cc1ccccc1OC(c1cccc(I)c1)C1CNCCO1` (racemic): the results for the Ki in data set [1] and in data set [2] were 740 nM and 27.6 nM, respectively. In data set [5], this compound returned an inhibition of 24%.
